# From patent publication US8207185B2, “CaMKKβ as a target for treating obesity” (Duke University, priority 2006, dated 2012)
# Key:
# [1] = tested on: NPY and AgRP mRNA; assay: Third-ventricle infusion of STO-609 in living mice: hypothalamic NPY and AgRP mRNA quantified by RT-PCR; type: in vivo; conditions: 20 uM STO-609 by osmotic mini-pump, 0.5 ul/hr for 7 days, into third ventricle; versus NaOH vehicle; FIG. 1
# Method: (§1) To test the effect of STO-609 on feeding behavior, we stereotaxically implanted cannula into the third ventricle of living mice and attached the cannula to osmotic min-pumps that distribute fluids at a rate of 0.5 ul/hr for 7 days. Half of the pumps contained 20 uM STO-609 whereas the other half contained the NaOH vehicle. We monitored body weight together with food and water intake daily for 7 days. Then the mice were sacrificed, hypothalami were removed, RNA extracted and the mRNAs encoding NPY and AgRP were quantified by RT-PCR. […] In addition, STO-609 decreased the total amount of food consumed over the 7 day period by 60% (FIG. 2, left panel) but had no effect on water consumption. In addition, whereas the WT mice gained body weight during the 7 day period (about 4% relative to the starting weight) the STO-609 treated mice lost weight (about 7% relative to the starting weight) (FIG. 2, right panel).
# [2] = tested on: feeding behavior of living mice; assay: Third-ventricle infusion of STO-609 in living mice: food intake, water intake and body weight over 7 days; type: in vivo; conditions: 20 uM STO-609, 0.5 ul/hr for 7 days
# Method: as §1
smiles,measurement,setting,value
O=C(O)c1ccc2c3c1cccc3c(=O)n1c3ccccc3nc21 [STO-609],AgRP mRNA in hypothalamic RNA,[1],highly statistically significant decreases
same,NPY mRNA in hypothalamic RNA,[1],highly statistically significant decreases
same,effect on water consumption,[2],no effect
same,body weight lost relative to the starting weight,"[2]; 7 day period, FIG. 2, right panel",about 7%
same,decrease of total amount of food consumed over the 7 day period,"[2]; FIG. 2, left panel",60%
